Source: patent US20140011822A1, “METHODS AND MATERIALS FOR REDUCING VENOUS STENOSIS FORMATION OF AN ARTERIOVENOUS FISTULA OR GRAFT” (priority 2011, published 2014)

Legend:
[1] = test system: outflow vein of arteriovenous fistula; assay: Histomorphometry of outflow vein (neointima, media/adventitia, lumen area, cell density), simvastatin; type: in vivo, mice; settings: for Average reduction of media/adventitia area / average increase of lumen vessel area / average reduction of media/adventitia cell density / average reduction of neointima area / average reduction of neointima cell density: vs control
Description: (§1) Animals were housed at 22° C. temperature, 41% relative humidity, and 12-/12-hour light/dark cycles. Animals were allowed access to water and food ad libitum. […] Sixty-eight male C57BL/6 mice (Jackson Laboratories, Bar Harbor, Me.) weighing 25-30 grams were used for the present study (FIG. 18). Chronic kidney disease was created by surgical removal of the right kidney accompanied by ligation of the arterial blood supply to the upper pole of the left kidney as described elsewhere (Misra et al., J. Vasc. Interv. Radiol., 21:1255-1261 (2010); see, also, FIG. 18A). Three weeks after nephrectomy, the animals were started on simvastatin (40 mg/kg administered i.p. three times per week) or PBS (equal amount of volume used for simvastatin i.p. controls). Simvastatin was prepared as described elsewhere (Wilson et al., Arterioscler Thromb. Vasc. Biol., 21:122-128 (2001)). A week later, an AVF was created by connecting the right carotid artery to the ipsilateral jugular vein (FIG. 18B; see, also, Misra et al., J. Vasc. Interv. Radiol., 21:1255-1261 (2010) and Yang et al., J. Vasc. Interv. Radiol., 20:946-950 (2009)). Animals were sacrificed at day 7, day 14, and day 28 following AVF placement for real time polymerase chain reaction (RT-PCR) and histomorphometric analyses (FIG. 18C). Serum BUN and creatinine were measured by removing blood from the tail vein at baseline (before nephrectomy), at AVF creation, and at the time of sacrifice. […] These animals were started on simvastatin (40 mg/kg i.p.) or PBS (equal amount of volume i.p.) every other day one week before AVF placement and then sacrificed four weeks after fistula placement for histomorphometric analysis.
At euthanasia, all mice were anesthetized, and the arterio-venous fistula was carefully dissected from of the surrounding tissue. Animals were euthanized by use of CO2 asphyxiation, and the outflow veins harvested for RT-PCR or histomorphometric analyses as described elsewhere (Misra et al., Kidney Int., 68:2890-2900 (2005); Misra et al., J. Vasc. Interv. Radiol., 21:1255-1261 (2010); and Misra et al., Am. J. Physiol. Heart Circ. Physiol., 294:H2219-2230 (2008)).
(§2) Morphometric analysis was performed as described elsewhere (Misra et al., Kidney Int., 68:2890-2900 (2005); and Misra et al., Am. J. Physiol. Heart Circ. Physiol., 294:H2219-2230 (2008)). Briefly, the outflow vein was sectioned into multiple contiguous 4-μm paraffin embedded sections. Typically, 2 to 3 sections per animal for each group (simvastatin and controls) and time point (day 14 and day 28) were photographed and then quantified using KS 400 (Carl Zeiss, Inc., Thornwood, N.Y.) semiquantitative program.

HIF-1α = assay: RT-PCR for HIF-1α at outflow vein, simvastatin; type: in vivo, mice; settings: for average reduction of HIF-1α gene expression: vs control
Description: as §1
The tissue was stored in RNA stabilizing reagent (Qiagen, Gaithersburg, Md.) as per the manufacturer's guidelines. To isolate the RNA, the specimens were homogenized, and total RNA was isolated using RNeasy mini kit (Qiagen) (Misra et al., J. Vasc. Interv. Radiol., 21:1255-1261 (2010); and Yang et al., J. Vasc. Interv. Radiol., 20:946-950 (2009)).
Expression for the gene of interest was determined using RT-PCR analysis as described elsewhere (Misra et al., J. Vasc. Interv. Radiol., 21:1255-1261 (2010)). Commercial PCR primers for the gene of interest were purchased from SA Biosciences (Frederick, Md.).

α-SMA [2] = assay: Western blot of α-SMA in NIH 3T3 cells, simvastatin; type: cell-based; settings: 10 μM, 24 hours of hypoxia, vs control
Description: One hundred thousand NIH 3T3 cells were treated with simvastatin (1 μM, 5 μM, or 10 μM) or controls and made hypoxic for 24 hours as described elsewhere (Misra et al., J. Vasc. Interv. Radiol., 21:896-902 (2010)).
The differentiation of fibroblasts to myofibroblasts was assessed by performing Western blot analysis for α-SMA. The cultured cells were processed for Western analysis using rabbit polyclonal antibody as described elsewhere (Misra et al., J. Vasc. Interv. Radiol., 19:252-259 (2008)).

α-SMA [3] = assay: α-SMA staining of outflow vein, simvastatin; type: in vivo, mice; settings: for average reduction of α-SMA density: vs control
Description: (§3) Multiple serial four-micrometer sections were stained and analyzed. Cellular proliferation was determined by staining for Ki-67 on sections removed from the outflow vein for simvastatin treated vessels or control groups. Smooth muscle density (α-SMA) or proliferation index (Ki-67) was determined by staining on sections removed from the outflow vein by performing quantification at the different time points. Immunohistochemistry for Ki-67 and α-SMA was performed on paraffin-embedded sections from the outflow vein after transfection with either simvastatin or controls using the Vectastain Elite ABC system (Vector Laboratories, Burlingame, Calif., USA). The following antibodies were used: mouse monoclonal antibody Ki-67 (DAKO, Carpentaria, Calif.; 1:400) or rabbit polyclonal antibody to mouse for α-SMA (Abcam, Cambridge, Mass.; 1:400).
as §2

Ki-67 = Ki-67 staining of outflow vein, simvastatin; type: in vivo, mice; settings: vs control
Description: as §3, §2

MMP-2 = assay: RT-PCR for MMP-2 in kidneys, simvastatin; type: in vivo, mice
Description: Animals were housed at 22° C. temperature, 41% relative humidity, and 12-/12-hour light/dark cycles. Animals were allowed access to water and food ad libitum. […] Sixty-eight male C57BL/6 mice (Jackson Laboratories, Bar Harbor, Me.) weighing 25-30 grams were used for the present study (FIG. 18). Chronic kidney disease was created by surgical removal of the right kidney accompanied by ligation of the arterial blood supply to the upper pole of the left kidney as described elsewhere (Misra et al., J. Vasc. Interv. Radiol., 21:1255-1261 (2010); see, also, FIG. 18A). Three weeks after nephrectomy, the animals were started on simvastatin (40 mg/kg administered i.p. three times per week) or PBS (equal amount of volume used for simvastatin i.p. controls). Simvastatin was prepared as described elsewhere (Wilson et al., Arterioscler Thromb. Vasc. Biol., 21:122-128 (2001)). […] Serum BUN and creatinine were measured by removing blood from the tail vein at baseline (before nephrectomy), at AVF creation, and at the time of sacrifice. […]
Expression for the gene of interest was determined using RT-PCR analysis as described elsewhere (Misra et al., J. Vasc. Interv. Radiol., 21:1255-1261 (2010)). […]

CCC(C)(C)C(=O)O[C@H]1C[C@@H](C)C=C2C=C[C@H](C)[C@H](CC[C@@H]3C[C@@H](O)CC(=O)O3)[C@H]21 [simvastatin]
average area of the media/adventitia ([1]; day 14): 147603±4443 μm^2
average area of the neointima ([1]; day 14): 61864±12401 μm^2
average cell density of the media/adventitia ([1]; day 14): 3.27±0.33
average cell density of the neointima ([1]; day 14): 4.6±0.2
average lumen vessel area ([1]; day 14): 95051±21583
Average reduction of media/adventitia area ([1]; day 14): 43%
average increase of lumen vessel area ([1]; day 14): 150%
average reduction of media/adventitia cell density ([1]; day 14): 37%
average reduction of neointima area ([1]; day 14): 56%
average reduction of neointima cell density ([1]; day 14): 65%
average area of the neointima ([1]; day 28): 85574±1652
average cell density of the media/adventitia ([1]; day 28): 2.85±0.10
average cell density of the neointima ([1]; day 28): 4.2±0.2
average lumen vessel area ([1]; day 28): 162607±34685
average increase of lumen vessel area ([1]; day 28): 343%
average reduction of media/adventitia cell density ([1]; day 28): 35%
average reduction of neointima area ([1]; day 28): 45%
average reduction of neointima cell density ([1]; day 28): 70%
Average reduction of media/adventitia area ([1]; day 28, not statistically significant (P=0.03)): 32%
average cell density of the media/adventitia ([1]; day 28 normal): 1.67±0.1
average cell density of the neointima ([1]; day 28 normal): 2.63±0.11
average reduction of media/adventitia cell density ([1]; day 28 normal): 71%
average reduction of neointima cell density ([1]; day 28 normal): 61%
Average reduction of media/adventitia area ([1]; day 28 normal, not statistically significant (P=0.03)): 29%
mean gene expression of HIF-1α (HIF-1α; day 7): 0.45±0.12
average reduction of HIF-1α gene expression (HIF-1α; day 7): 54%
mean gene expression of HIF-1α (HIF-1α; day 14): 0.34±0.04
average reduction of HIF-1α gene expression (HIF-1α; day 14): 54%
Average reduction in α-SMA production (Western blot) (α-SMA [2]): 56%
average α-SMA density (α-SMA [3]; day 14): 24±1.2
average reduction of α-SMA density (α-SMA [3]; day 14): 46%
average α-SMA density (α-SMA [3]; day 28): 8.4±1.6
average reduction of α-SMA density (α-SMA [3]; day 28): 87%
average α-SMA density (α-SMA [3]; day 28 normal): 28.4±1.6
average reduction of α-SMA density (α-SMA [3]; day 28 normal): 32%
average reduction of Ki-67 density (Ki-67; day 14): 66%
average reduction of Ki-67 density (Ki-67; day 28): 76%
average reduction of Ki-67 density (Ki-67; day 28 normal): 77%
expression of MMP-2 (MMP-2; day 28): 0.78±0.09
Average reduction of MMP-2 expression (MMP-2; day 28, vs control): 42%
